In the supplement of paper PMC10307832:

Tests used:
Experiment in all cases: relative viability (nuclei count vs DMSO), 5 days (fraction); higher = more cells survive
IDH-C35 + Pemetrexed = compound: Cc1ccccc1C(C(=O)NC1CCCCC1)N(C(=O)Cn1ccnc1C)c1cccc(F)c1 [IDH-C35] + Nc1nc2[nH]cc(CCc3ccc(C(=O)N[C@@H](CCC(=O)O)C(=O)O)cc3)c2c(=O)[nH]1 [Pemetrexed] (partner 0.2 µM)
Summary of the method: (§1)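 Relative viability equals treated-well nuclei counts divided by vehicle-well nuclei counts. Counts came from 4× images of lung cancer cell lines grown in 1536-well plates for 5 days after pin-tool dosing on the day after seeding. Dosing used one drug alone or a fixed anchor-drug dose plus five library-drug doses (not always all listed) in √10 steps, and values are medians of duplicate plates.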

IDH-C35 + Olaparib = compound: Cc1ccccc1C(C(=O)NC1CCCCC1)N(C(=O)Cn1ccnc1C)c1cccc(F)c1 [IDH-C35] + O=C(c1cc(Cc2n[nH]c(=O)c3ccccc23)ccc1F)N1CCN(C(=O)C2CC2)CC1 [Olaparib] (partner 8 µM)
Summary of the method: as §1

[1] = compound: CC1=C(C(=NN1)C)CC2=C(C3=C(S2)N(C(=O)N(C3=O)C)CC(C)C)C(=O)N4C[C@@H](CO4)O + C[C@]1(O)C[C@@H](c2nc(-c3ccc4ccc(-c5ccccc5)nc4c3)c3c(N)nccn32)C1 [Linsitinib] (partner 1 µM)
Summary of the method: as §1

IDH-C35 + Crizotinib = compound: Cc1ccccc1C(C(=O)NC1CCCCC1)N(C(=O)Cn1ccnc1C)c1cccc(F)c1 [IDH-C35] + C[C@@H](Oc1cc(-c2cnn(C3CCNCC3)c2)cnc1N)c1c(Cl)ccc(F)c1Cl [Crizotinib] (partner 1 µM)
Summary of the method: as §1

| Cell Line | relative viability (IDH-C35 + Pemetrexed; first compound 0.08 µM) | relative viability (IDH-C35 + Pemetrexed; first compound 0.253 µM) | relative viability (IDH-C35 + Pemetrexed; first compound 0.8 µM) | relative viability (IDH-C35 + Pemetrexed; first compound 2.53 µM) | relative viability (IDH-C35 + Pemetrexed; first compound 8 µM) | relative viability (IDH-C35 + Olaparib; first compound 0.08 µM) | relative viability (IDH-C35 + Olaparib; first compound 0.253 µM) | relative viability (IDH-C35 + Olaparib; first compound 0.8 µM) | relative viability (IDH-C35 + Olaparib; first compound 8 µM) | relative viability ([1]; first compound 0.0025 µM) | relative viability ([1]; first compound 0.007906 µM) | relative viability ([1]; first compound 0.025 µM) | relative viability ([1]; first compound 0.07906 µM) | relative viability ([1]; first compound 0.25 µM) | relative viability (IDH-C35 + Crizotinib; first compound 0.08 µM) | relative viability (IDH-C35 + Crizotinib; first compound 0.253 µM) | relative viability (IDH-C35 + Crizotinib; first compound 0.8 µM) | relative viability (IDH-C35 + Crizotinib; first compound 8 µM) | relative viability (IDH-C35 + Olaparib; first compound 2.53 µM) | relative viability (IDH-C35 + Crizotinib; first compound 2.53 µM) |
| --- | --- | --- | --- | --- | --- | --- | --- | --- | --- | --- | --- | --- | --- | --- | --- | --- | --- | --- | --- | --- |
| HOP-62 | 0.302 | 0.309 | 0.255 | 0.338 | 0.346 | 0.46 | 0.222 | 0.272 | 0.39 | 1.01 | 0.967 | 0.889 | 1 | 0.817 | 0.839 | 1.04 | 0.832 | 0.925 |  |  |
| HARA | 0.278 | 0.239 | 0.326 | 0.256 | 0.254 | 0.835 | 1.03 | 0.742 | 0.845 | 1.08 | 1.01 | 0.919 | 0.924 | 1.01 | 1.02 | 0.986 | 0.997 | 1.05 | 0.725 | 1.09 |
| NCI-H838 | 0.241 | 0.248 | 0.272 | 0.255 | 0.235 | 0.797 | 0.787 | 0.779 | 0.745 | 1.02 | 1.08 | 0.987 | 1.02 | 1.04 | 0.834 | 0.787 | 0.812 | 0.799 | 0.785 | 0.77 |
| NCI-H1755 | 0.455 | 0.748 | 0.458 | 0.411 | 0.473 | 0.923 | 0.806 | 0.884 | 0.866 | 1.05 | 1.03 | 0.975 | 0.957 | 0.976 | 0.911 | 0.915 | 0.872 | 0.827 | 0.847 | 0.865 |
| HCC-78 | 0.918 | 0.918 | 0.897 | 0.912 | 0.943 | 0.91 | 0.78 | 0.883 | 0.741 | 0.483 | 0.548 | 0.587 | 0.505 | 0.377 | 0.343 | 0.349 | 0.342 | 0.303 | 0.932 | 0.322 |
| IA-LM |  |  |  |  |  | 0.872 | 0.88 | 0.731 | 0.963 | 0.686 | 0.509 | 0.552 | 0.525 | 0.94 | 0.94 | 0.874 | 0.741 | 0.704 | 0.744 | 0.755 |
| NCI-H322M | 0.622 | 0.554 | 0.644 | 0.578 | 0.608 | 0.616 | 0.796 | 0.794 | 0.845 | 0.92 | 0.975 | 0.942 | 0.899 | 0.722 | 0.863 | 0.961 | 0.91 | 1.02 | 0.789 | 0.931 |
| NCI-H1793 | 0.759 | 0.783 | 0.804 | 1.04 | 0.854 | 0.934 | 0.903 | 0.932 | 0.859 | 0.726 | 0.868 | 0.834 | 0.66 | 0.926 |  |  |  |  | 0.862 |  |
| ChaGo-K-1 | 0.244 | 0.27 | 0.273 | 0.265 | 0.248 | 0.432 | 0.432 | 0.438 | 0.42 |  |  |  |  |  | 1.16 | 1.05 | 1.09 | 1.09 | 0.452 | 0.923 |
| NCI-H522 | 0.874 | 1.04 | 0.818 | 0.793 | 1.05 | 0.594 | 0.687 | 0.657 | 0.746 |  |  |  |  |  |  |  |  |  | 0.59 |  |
| NCI-H1299 |  |  |  |  |  | 1.04 | 0.977 | 0.979 | 0.998 | 1.03 | 0.875 | 0.926 | 1 | 1.06 | 0.97 | 0.953 | 0.981 | 0.93 | 1.04 | 0.923 |
| NCI-H1650 | 0.334 | 0.4 | 0.323 | 0.428 | 0.362 | 0.783 | 0.65 | 0.769 | 0.757 |  |  |  |  |  | 0.796 | 0.978 | 0.965 | 0.923 | 0.588 | 0.914 |
| NCI-H1648 |  | 0.758 | 0.712 | 0.807 | 0.529 |  | 0.765 | 0.801 | 0.782 |  |  |  |  |  |  |  |  |  | 0.681 |  |
| NCI-H727 |  |  |  |  |  | 0.633 | 0.873 | 0.705 | 0.717 | 0.233 | 0.324 | 0.386 | 0.259 | 0.247 | 0.853 | 0.734 | 0.826 | 0.954 | 0.7 | 0.916 |
| NCI-H2342 | 0.78 | 0.742 | 0.775 | 0.768 | 0.679 | 0.435 | 0.49 | 0.41 | 0.377 |  |  |  |  |  |  |  |  |  | 0.467 |  |
| SW 900 | 0.51 | 0.459 |  | 0.506 | 0.485 | 0.915 | 0.819 |  | 0.83 |  |  |  |  |  |  |  |  |  | 1.02 |  |
| NCI-H1395 | 0.869 | 0.882 | 0.866 | 0.989 | 0.925 | 0.436 | 0.449 | 0.473 | 0.464 | 0.965 | 0.902 | 0.917 | 0.988 | 0.89 |  |  |  |  | 0.463 |  |
| A549 |  |  |  |  |  | 0.447 | 0.346 | 0.268 | 0.112 | 0.591 | 0.624 | 0.574 | 0.72 | 0.649 | 0.819 | 0.794 | 0.814 | 0.744 | 0.168 | 0.669 |
| NCI-H2170 | 0.277 | 0.341 | 0.265 | 0.267 | 0.262 | 0.616 | 0.654 | 0.587 | 0.593 |  |  |  |  |  | 1.25 | 1.2 | 1.14 | 1.22 | 0.571 | 1.17 |
| NCI-H1563 | 0.827 | 0.803 | 0.652 | 0.854 | 0.613 |  |  |  |  | 1.15 | 1.24 | 1.26 | 1.23 | 1.23 | 0.874 | 0.907 | 0.861 | 0.854 |  | 0.92 |
| ABC-1 |  |  |  |  |  | 0.668 | 1.04 | 0.77 | 0.906 | 0.676 | 0.793 | 0.905 | 1.27 | 0.8 | 0.876 | 1.21 | 1.3 | 1.09 | 0.819 | 1.15 |
